Where two headings read alike, the source gives them in different places.
Conditions: 40° C. and 75 RH; for Identification by IR: vs working standard of Imatinib Mesylate (Form-α)
Experimental: FTIR (Fourier transform infrared spectrophotometer) • Make: SHIMADZU, IR Prestige-21 • Sample preparation: KBr pellets • 3. […] HPLC: Used Agilent 1200, VWD detector, system gradient Instrument conditions are:
A stability study was performed on the alpha form of imatinib mesylate at 40° C. and 75 RH for 3 months.

CS(=O)(=O)O.Cc1ccc(NC(=O)c2ccc(CN3CCN(C)CC3)cc2)cc1Nc1nccc(-c2cccnc2)n1 [Example 2]
Assay [by HPLC] (on anhydrous) (1M): 99.94%
Descriptions (1M): White
Water content by KF (1M): 0.55 % w/w
Identification by IR (1M): concordant
Assay [by HPLC] (on anhydrous) (2M): 99.70%
Descriptions (2M): White
Related Substance [by HPLC] Unknown impurity RRT = 0.81 (2M): 0.03 % w/w
Water content by KF (2M): 0.61 % w/w
Identification by IR (2M): concordant
Assay [by HPLC] (on anhydrous) (3M): 99.75%
Descriptions (3M): White
Related Substance [by HPLC] Known impurities: Impurity-1 (3M): 0.02 % w/w
Related Substance [by HPLC] Unknown impurity RRT = 0.81 (3M): 0.02 % w/w
Water content by KF (3M): 0.56 % w/w
Identification by IR (3M): concordant
Assay [by HPLC] (on anhydrous) (Initial): 99.98%
Descriptions (Initial): White
Related Substance [by HPLC] Total impurities (Initial): 0.04 % w/w
Related Substance [by HPLC] Unknown impurity RRT = 0.81 (Initial): 0.04 % w/w
Water content by KF (Initial): 0.52 % w/w
Identification by IR (Initial): concordant

— patent US20120309767A1, “PROCESS FOR THE PREPARATION OF ALPHA FORM OF IMATINIB MESYLATE” (priority 2010, published 2012)
